Molecular target: T1, human NaV1.8 (hNaV1.8) ion channel (Homo sapiens, UniProt Q9Y5Y9)
T1 construct: expressed in transfected cells
Assay: Inhibition of Human NaV1.8 stably expressed in SH-SY-5Y cells (membrane potential dye fluorescence assay)
Format: cell-based
Conditions: SH-SY-5Y cells stably expressing hNaV1.8; FLIPR membrane potential dye; 10 μM pyrethroid, 250 nM TTX; test range 100 μM-0.05 μM; read-out: hNav1.8 IC50
Method: Inhibition of Human NaV1.8 stably expressed in SH-SY-5Y cells
A SH-SY-5Y neuroblastoma cell line stably expressing the human NaV1.8 (hNaV1.8) ion channel was constructed. This cell line has been used to develop a medium to high throughput assay for determining the ability of test compounds to inhibit membrane depolarisation mediated via the hNaV1.8 channel.
SH-SY-5Y hNaV1.8 are grown in adherent monolayer culture using 50:50 Ham's F-12/EMEM tissue culture medium supplemented with 15% (v/v) foetal bovine serum; 2 mM L-glutamine, 1% NEAA and 600 μg·ml^−1 Geneticin sulphate. Cells are removed from the tissue culture flask using trypsin/EDTA and re-plated into black walled, clear bottom 96-well assay plates at 50,000 cells·well^−1 24 hours prior to assay.
On the day of assay the cell assay plates are washed to remove cell culture medium using a sodium free assay buffer (145 mM tetramethyl ammonium chloride; 2 mM calcium chloride; 0.8 mM magnesium chloride hexahydrate; 10 mM HEPES; 10 mM glucose; 5 mM potassium chloride, pH 7.4). Fluorescent membrane potential dye solution (FLIPR™ membrane potential dye, Molecular Devices Corporation), containing 10 μM of a pyrethroid to prevent channel inactivation and 250 nM tetrodotoxin (TTX) to reduce interference from TTX-sensitive sodium channels present in the cell line. Test compound, initially dissolved in dimethyl sulfoxide but further diluted in sodium free buffer, is added to achieve the final test concentration range of 100 μM-0.05 μM.
Cell plates are incubated for 30 minutes at room temperature to allow equilibration of dye and test compound. Plates are then transferred to a fluorescence plate reader for fluorescence measurement using an excitation wavelength of 530 nm whilst measuring fluorescence emission at 565 nm. […] Membrane depolarisation is registered by an increase in fluorescence emission at 565 nm.
The change in fluorescence seen in each test well upon the addition of sodium containing buffer is calculated relative to the baseline fluorescence for that well. This figure is then used for calculating the IC50 for each test compound.

T1 sequence (Q9Y5Y9 whole entry): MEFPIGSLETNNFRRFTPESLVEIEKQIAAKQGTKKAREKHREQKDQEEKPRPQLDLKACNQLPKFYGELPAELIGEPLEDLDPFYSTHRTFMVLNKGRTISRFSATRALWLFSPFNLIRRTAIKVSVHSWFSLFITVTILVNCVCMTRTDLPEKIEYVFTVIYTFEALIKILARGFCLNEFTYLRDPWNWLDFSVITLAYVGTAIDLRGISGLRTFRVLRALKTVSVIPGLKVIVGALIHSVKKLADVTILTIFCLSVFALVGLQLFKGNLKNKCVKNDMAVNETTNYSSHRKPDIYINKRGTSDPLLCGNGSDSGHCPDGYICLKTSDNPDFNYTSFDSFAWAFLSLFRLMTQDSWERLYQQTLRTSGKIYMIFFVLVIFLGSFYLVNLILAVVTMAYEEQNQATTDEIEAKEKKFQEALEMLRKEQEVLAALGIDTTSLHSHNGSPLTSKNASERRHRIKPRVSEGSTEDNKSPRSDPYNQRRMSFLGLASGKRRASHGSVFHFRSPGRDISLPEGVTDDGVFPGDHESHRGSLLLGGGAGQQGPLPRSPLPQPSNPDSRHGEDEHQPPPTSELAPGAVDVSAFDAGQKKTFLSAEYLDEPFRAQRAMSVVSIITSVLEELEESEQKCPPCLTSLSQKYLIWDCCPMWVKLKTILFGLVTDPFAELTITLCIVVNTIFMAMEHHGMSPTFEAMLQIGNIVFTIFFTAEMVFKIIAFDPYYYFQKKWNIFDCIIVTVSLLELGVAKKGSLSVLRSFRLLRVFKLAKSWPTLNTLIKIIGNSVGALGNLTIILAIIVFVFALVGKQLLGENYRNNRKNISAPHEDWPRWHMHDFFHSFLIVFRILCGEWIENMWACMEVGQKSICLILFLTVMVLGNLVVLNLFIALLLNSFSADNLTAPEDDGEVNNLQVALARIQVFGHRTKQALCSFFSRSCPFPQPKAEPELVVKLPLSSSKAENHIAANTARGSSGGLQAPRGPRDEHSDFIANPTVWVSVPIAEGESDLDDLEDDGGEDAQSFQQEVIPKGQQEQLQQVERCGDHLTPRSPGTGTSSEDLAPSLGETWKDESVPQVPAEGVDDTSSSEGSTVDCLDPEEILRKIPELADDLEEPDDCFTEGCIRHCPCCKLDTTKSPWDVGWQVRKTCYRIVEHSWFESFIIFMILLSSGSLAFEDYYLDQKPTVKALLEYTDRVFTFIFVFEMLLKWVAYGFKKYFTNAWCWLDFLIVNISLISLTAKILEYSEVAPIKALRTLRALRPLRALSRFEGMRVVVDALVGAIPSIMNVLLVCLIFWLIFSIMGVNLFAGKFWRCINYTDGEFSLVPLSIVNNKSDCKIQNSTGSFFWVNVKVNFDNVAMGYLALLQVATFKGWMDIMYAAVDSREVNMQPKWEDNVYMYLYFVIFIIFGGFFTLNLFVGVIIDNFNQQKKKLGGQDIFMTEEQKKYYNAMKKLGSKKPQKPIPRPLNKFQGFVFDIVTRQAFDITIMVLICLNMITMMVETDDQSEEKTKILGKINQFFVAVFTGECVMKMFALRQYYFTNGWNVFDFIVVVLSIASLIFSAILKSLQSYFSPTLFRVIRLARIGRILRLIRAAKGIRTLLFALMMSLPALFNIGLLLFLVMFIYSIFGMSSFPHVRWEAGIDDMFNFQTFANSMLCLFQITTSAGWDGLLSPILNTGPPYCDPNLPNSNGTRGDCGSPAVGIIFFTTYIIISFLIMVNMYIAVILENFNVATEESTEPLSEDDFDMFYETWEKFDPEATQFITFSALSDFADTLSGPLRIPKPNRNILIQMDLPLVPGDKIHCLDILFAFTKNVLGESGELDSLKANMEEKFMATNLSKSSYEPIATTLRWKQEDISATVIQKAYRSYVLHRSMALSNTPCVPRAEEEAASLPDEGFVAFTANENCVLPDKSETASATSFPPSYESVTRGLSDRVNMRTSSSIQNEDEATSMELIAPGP

SMILES | IC50
COC(=O)C(NC1CN(C(=O)Nc2ccc(Oc3ccccc3)cc2)C1)c1ccccc1 (stereo not shown) [Example 53, [1-(4-Phenoxy-phenylcarbamoyl)-azetidin-3-ylamino]-phenyl-acetic acid methyl ester] | 2230 nM
COc1ccc(C(C)NC2CN(C(=O)Nc3ccc(Oc4ccccc4)cc3)C2)cc1 (stereo not shown) [Example 54, 3-[1-(4-Methoxy-phenyl)-ethylamino]-azetidine-1-carboxylic acid (4-phenoxy-phenyl)-amide] | 420 nM
NC(=O)C(NC1CN(C(=O)Nc2ccc(Oc3ccccc3)cc2)C1)c1ccccc1 (stereo not shown) [Example 55, 3-[(Carbamoyl-phenyl-methyl)-amino]-azetidine-1-carboxylic acid (4-phenoxy-phenyl)-amide] | 7710 nM
CC(NC1CN(C(=O)Nc2ccc(C(F)(F)F)cc2)C1)c1ccc(F)cc1 (stereo not shown) [Example 56, 3-[1-(4-Fluoro-phenyl)-ethylamino]-azetidine-1-carboxylic acid (4-trifluoromethyl-phenyl)-amide] | 3280 nM
CC(NC1CN(C(=O)Nc2ccc(Oc3ccccc3)cc2)C1)c1ccc(F)cc1Cl (stereo not shown) [Example 57, 3-[1-(2-Chloro-4-fluoro-phenyl)-ethylamino]-azetidine-1-carboxylic acid (4-phenoxy-phenyl)-amide] | 1220 nM
CC(NC1CN(C(=O)Nc2cccc(Oc3ccccc3)c2)C1)c1ccc(F)cc1Cl (stereo not shown) [Example 58, 3-[1-(2-Chloro-4-fluoro-phenyl)-ethylamino]-azetidine-1-carboxylic acid (3-phenoxy-phenyl)-amide] | 1120 nM
CC(c1ccc(F)cc1Cl)N(C)C1CN(C(=O)Nc2ccc(C(F)(F)F)cc2)C1 (stereo not shown) [Example 59, 3-{[1-(2-Chloro-4-fluoro-phenyl)-ethyl]-methyl-amino}-azetidine-1-carboxylic acid (4-trifluoromethyl-phenyl)-amide] | 1870 nM
CC(c1ccc(F)cc1Cl)N(C)C1CN(C(=O)Nc2ccc(Oc3ccccc3)cc2)C1 (stereo not shown) [Example 60, 3-{[1-(2-Chloro-4-fluoro-phenyl)-ethyl]-methyl-amino}-azetidine-1-carboxylic acid (4-phenoxy-phenyl)-amide] | 570 nM
Cc1ccccc1C(C)NC1CN(C(=O)Nc2ccc(Oc3ccccc3)cc2)C1 (stereo not shown) [Example 61, 3-(1-o-Tolyl-ethylamino)-azetidine-1-carboxylic acid (4-phenoxy-phenyl)-amide] | 750 nM
Cc1ccccc1C(C)N(C)C1CN(C(=O)Nc2ccc(Oc3ccccc3)cc2)C1 (stereo not shown) [Example 62, 3-[Methyl-(1-o-tolyl-ethyl)-amino]-azetidine-1-carboxylic acid (4-phenoxy-phenyl)-amide] | 720 nM
CC(NC1CN(C(=O)Nc2ccc(Oc3ccccc3)cc2)C1)c1ccccc1Cl (stereo not shown) [Example 63, 3-[1-(2-Chloro-phenyl)-ethylamino]-azetidine-1-carboxylic acid (4-phenoxy-phenyl)-amide] | 630 nM
CCCCOc1ccc(NC(=O)N2CC(NC(C)c3ccccc3C)C2)cc1 (stereo not shown) [Example 65, 3-(1-o-Tolyl-ethylamino)-azetidine-1-carboxylic acid (4-butoxy-phenyl)-amide] | 1420 nM
CCCCOc1ccc(NC(=O)N2CC(NC(C)c3ccc(F)cc3)C2)cc1 (stereo not shown) [Example 66, 3-[1-(4-Fluoro-phenyl)-ethylamino]-azetidine-1-carboxylic acid (4-butoxy-phenyl)-amide] | 2270 nM
CC(c1ccccc1Cl)N(C)C1CN(C(=O)Nc2ccc(Oc3ccccc3)cc2)C1 (stereo not shown) [Example 67, 3-{[1-(2-Chloro-phenyl)-ethyl]-methyl-amino}-azetidine-1-carboxylic acid (4-phenoxy-phenyl)-amide] | 550 nM
CCCCOc1cccc(NC(=O)N2CC(NC(C)c3ccccc3C)C2)c1 (stereo not shown) [Example 68, 3-(1-o-Tolyl-ethylamino)-azetidine-1-carboxylic acid (3-butoxy-phenyl)-amide] | 830 nM
CCCCOc1cccc(NC(=O)N2CC(NC(C)c3ccc(F)cc3)C2)c1 (stereo not shown) [Example 69, 3-[1-(4-Fluoro-phenyl)-ethylamino]-azetidine-1-carboxylic acid (3-butoxy-phenyl)-amide] | 1320 nM
CC(NC1CN(C(=O)Nc2ccc(Oc3ccccc3)cc2)C1)c1ccc(OC(F)(F)F)cc1 (stereo not shown) [Example 70, 3-[1-(4-Trifluoromethoxy-phenyl)-ethylamino]-azetidine-1-carboxylic acid (4-phenoxy-phenyl)-amide] | 22100 nM
CCCCOc1ccc(NC(=O)N2CC(NC(C)c3ccccc3Cl)C2)cc1 (stereo not shown) [Example 71, 3-[1-(2-Chloro-phenyl)-ethylamino]-azetidine-1-carboxylic acid (4-butoxy-phenyl)-amide] | 770 nM
CC(NC1CN(C(=O)Nc2ccc(OC(F)(F)F)cc2)C1)c1ccc(F)cc1 (stereo not shown) [Example 72, 3-[1-(4-Fluoro-phenyl)-ethylamino]-azetidine-1-carboxylic acid (4-trifluoromethoxy-phenyl)-amide] | 3210 nM
CC(NC1CN(C(=O)Nc2cccc(C(F)(F)F)c2)C1)c1ccc(F)cc1 (stereo not shown) [Example 73, 3-[1-(4-Fluoro-phenyl)-ethylamino]-azetidine-1-carboxylic acid (3-trifluoromethyl-phenyl)-amide] | 2560 nM
CC(NC1CN(C(=O)Nc2cccc(C(F)(F)F)c2)C1)c1ccccc1Cl (stereo not shown) [Example 74, 3-[1-(2-Chloro-phenyl)-ethylamino]-azetidine-1-carboxylic acid (3-trifluoromethyl-phenyl)-amide] | 2860 nM
Cc1ccccc1C(C)NC1CN(C(=O)Nc2cccc(C(F)(F)F)c2)C1 (stereo not shown) [Example 75, 3-(1-o-Tolyl-ethylamino)-azetidine-1-carboxylic acid (3-trifluoromethyl-phenyl)-amide] | 2260 nM
CCCCOc1ccc(NC(=O)N2CC(N3CCc4cccc(OC)c4C3)C2)cc1 [Example 76, 3-(8-Methoxy-3,4-dihydro-1H-isoquinolin-2-yl)-azetidine-1-carboxylic acid (4-butoxy-phenyl)-amide] | 1410 nM
CC(NC1CN(C(=O)Nc2ccc(Oc3ccccc3)cc2)C1)c1ccc(Oc2ccccc2)cc1 (stereo not shown) [Example 77, 3-[1-(4-Phenoxy-phenyl)-ethylamino]-azetidine-1-carboxylic acid (4-phenoxy-phenyl)-amide] | 1090 nM
CC(NC1CN(C(=O)Nc2ccc(C(F)(F)F)cc2)C1)c1ccc(Oc2ccccc2)cc1 (stereo not shown) [Example 78, 3-[1-(4-Phenoxy-phenyl)-ethylamino]-azetidine-1-carboxylic acid (4-trifluoromethyl-phenyl)-amide] | 1300 nM
CC(NC1CN(C(=O)Nc2ccc(Oc3ccccc3)cc2)C1)c1ccc(F)cc1 (stereo not shown) [Example 79, 3-[1-(4-Fluoro-phenyl)-ethylamino]-azetidine-1-carboxylic acid (4-phenoxy-phenyl)-amide] | 760 nM
CC(c1ccc(OC(F)(F)F)cc1)N(C)C1CN(C(=O)Nc2ccc(Oc3ccccc3)cc2)C1 (stereo not shown) [Example 80, 3-{Methyl-[1-(4-trifluoromethoxy-phenyl)-ethyl]-amino}-azetidine-1-carboxylic acid (4-phenoxy-phenyl)-amide] | 1220 nM
CC(c1ccc(F)cc1)N(C)C1CN(C(=O)Nc2cc(C(F)(F)F)ccc2F)C1 (stereo not shown) [Example 81, 3-{[1-(4-Fluoro-phenyl)-ethyl]-methyl-amino}-azetidine-1-carboxylic acid (2-fluoro-5-trifluoromethyl-phenyl)-amide] | 8370 nM

From US20100105651A1, “ANTAGONISTS OF SNS SODIUM CHANNELS” (priority 2005, published 2010)
